ChEMBL document CHEMBL5046245, “Identification of Pyruvate Carboxylase as the Cellular Target of Natural Bibenzyls with Potent Anticancer Activity against Hepatocellular Carcinoma via Metabolic Reprogramming” (J Med Chem, 2022)
Calls of active or inactive are those of the source. The rule behind the calls is not given here.

Columns and labels:
HepG2 [1] = assay: Antiproliferative activity against human HepG2 cells assessed as inhibition of cell growth at 10 to 200 nM measured up to 3 days by MTT assay; type: functional, cell-based; settings: dose 10-200 nM, time day <=3, TDE = time-dependent effect
L02 = assay: Cytotoxicity against human HL7702 cells assessed as inhibition of cell growth measured upto 400 nM measured after 48 hrs by MTT assay; type: toxicity, cell-based; settings: l02, 48 h
HepG2 [2] = assay: Effect on cell cycle arrest in human HepG2 cells assessed as increase in accumulation of cells in G2/M phase at 20 to 80 nM incubated for 24 hrs by propidium iodide staining based flow cytometry analysis; type: functional; settings: dose 20-80 nM, TDE = time-dependent effect
HepG2 [3] = assay: Effect on cell cycle arrest in human HepG2 cells assessed as decrease in accumulation of cells at G0/G1 phase at 20 nM measured upto 24 hrs hrs by propidium iodide staining based flow cytometry analysis; type: functional; settings: time hrs <=24, TDE = time-dependent effect
HCCLM3 [4] = assay: Antimigratory activity in human HCCLM3 cells assessed as inhibition of scratch closure at 0.05 to 1 nM measured after 24 hrs by […] assay; type: functional, cell-based; settings: dose 0.05-1 nM
HCCLM3 [5] = assay: Inhibition of epithelial-mesenchymal transition in human HCCLM3 cells assessed as upregulation of E-cadherin expression at 0.05 to 1 nM incubated for 24 hrs by Western blot analysis; type: functional, cell-based; settings: dose 0.05-1 nM
HepG2 [6] = assay: Induction of apoptosis in human HepG2 cells assessed as nuclear condensation at 100 nM incubated for 24 hrs by DAPI staining based phase contrast microscopic analysis; type: functional, cell-based
HepG2 [7] = assay: Induction of apoptosis in human HepG2 cells assessed as activation of caspase 3 measured after 24 hrs by Western blot analysis; type: functional, cell-based; settings: dose 10-40 nM
HepG2 [8] = assay: Induction of apoptosis in human HepG2 cells assessed as increase cleaved PARP level measured after 24 hrs by Western blot analysis; type: functional, cell-based; settings: dose 10-40 nM
HepG2 [9] = assay: Induction of caspase-mediated apoptosis in human HepG2 cells assessed as reduction in cell viability at 100 to 400 nM incubated for 48 hrs in presence of Z-VAD-FMK by MTT assay; type: functional, cell-based; settings: dose 100-400 nM
[10] = Toxicity in NCR-nu/nu mouse bearing human HepG2 tumor assessed as effect on body weight at 25 to 50 mg/kg, ip administered alternate days for 21 days and measured every three days; type: organism-based; settings: in vivo, 504 h, dose 25-50 mg/kg, time 21 day
[11] = Toxicity in NCR-nu/nu mouse bearing human HCCLM3 tumor assessed as effect on body weight at 25 to 50 mg/kg, ip administered alternate days for 21 days and measured every three days; type: organism-based; settings: in vivo, 504 h, dose 25-50 mg/kg, time 21 day
HepG2 [12] = assay: Antitumor activity against human HepG2 cells xenografted in NCR-nu/nu mouse assessed reduction in tumor growth at 25 to 50 mg/kg, ip administered alternate days for 21 days and measured 26 days post implantation; type: functional, organism-based; settings: dose 25-50 mg/kg, time 21.0 day
HCCLM3 [13] = assay: Antitumor activity against human HCCLM3 cells xenografted in NCR-nu/nu mouse assessed reduction in tumor growth at 25 to 50 mg/kg, ip administered alternate days for 21 days and measured 26 days post implantation; type: functional, organism-based; settings: dose 25-50 mg/kg, time 21.0 day
HCCLM3 [14] = assay: Induction of apoptosis in human HCCLM3 cells xenografted in NCR-nu/nu mouse assessed as increase in total apoptotic cells in tumor at 25 to 50 mg/kg, ip administered alternate days for 21 days and measured 26 days post implantation by TUNEL staining based confocal microscopic analysis; type: functional, organism-based; settings: dose 25-50 mg/kg, time 21.0 day
[15] = Systemic toxicity in NCR-nu/nu mouse bearing human HCCLM3 tumor assessed as pathological change in heart at 25 to 50 mg/kg, ip administered alternate days for 21 days and measured 26 days post implantation by H and E staining based analysis; type: organism-based; settings: in vivo, 504 h, dose 25-50 mg/kg, time 21 day
[16] = Systemic toxicity in NCR-nu/nu mouse bearing human HCCLM3 tumor assessed as pathological change in liver at 25 to 50 mg/kg, ip administered alternate days for 21 days and measured 26 days post implantation by H and E staining based analysis; type: organism-based; settings: in vivo, 504 h, dose 25-50 mg/kg, time 21 day
HepG2 [17] = assay: Competitive inhibition of recombinant pyruvate carboxylase in human HepG2 cell lysate in presence of Erianin at 20 uM for 120 mins followed by irradiation of 365 nm UV light for 15 min by Native -PAGE analysis; type: subcellular
[18] = Inhibition of pyruvate carboxylase in human HCCLM3 cells measured upto 24 hrs by PC assay kit; type: cell-based
[19] = Inhibition of pyruvate carboxylase in human HCCLM3 cell lysate measured upto 24 hrs by PC assay kit; type: subcellular
HCCLM3 [20] = assay: Anti-invasive activity against PC knockout human HCCLM3 cells assessed as suppression of cell invasion at 0.05 nM measured after 48 hrs by transwell assay; type: functional, cell-based
SK-HEP1 [21] = assay: Antiproliferative activity against human SK-HEP1 cells transfected with PC-flag plasmid assessed as reduction in cell viability incubated for 48 hrs by MTT assay; type: functional, cell-based
SK-HEP1 [22] = assay: Inhibition of epithelial transition in human SK-HEP1 cells overexpressing PC assessed as effect on E-cadherin expression; type: functional, cell-based
[23] = target: AMP-activated protein kinase, AMPK (Homo sapiens) (UniProt P54646+O43741+P54619+Q9UGJ0+Q9Y478+Q13131+Q9UGI9); assay: Activation of AMPK pathway in human HCCLM3 cells assessed as increase in AMPK phosphorylation level at 5 nM measured after 1 hr by Western blot analysis; type: cell-based; settings: filed as activator
HCCLM3 [24] = assay: Induction of glycolysis in human HCCLM3 cells assessed as decrease in level of ATP at 5 nM; type: functional, cell-based
HCCLM3 [25] = assay: Induction of glycolysis in human HCCLM3 cells assessed as decrease in level of serine at 5 nM; type: functional, cell-based
HCCLM3 [26] = assay: Induction of mitochondrial oxidative stress in human HCCLM3 cells assessed as accumulation of ROS at 10 nM by DCFH-DA staining based flow cytometry analysis; type: functional, cell-based; settings: TDE = time-dependent effect
HCCLM3 [27] = assay: Induction of mitochondrial oxidative stress in human HCCLM3 cells overexpressing PC assessed as accumulation of ROS at 10 nM by DCFH-DA staining based flow cytometry analysis; type: functional, cell-based
HCCLM3 [28] = assay: Inhibition of mitochondrial oxidative stress in PC knockout human HCCLM3 cells assessed as reduction in NADH/NAD ratio at 10 nM; type: functional, cell-based
HCCLM3 [29] = assay: Cytotoxicity against human HCCLM3 cells assessed as reduction in cell viability at 5 to 20 nM incubated for 48 hrs in presence of H2O2 by MTT assay; type: functional, cell-based; settings: dose 5-20 nM
HCCLM3 [30] = assay: Effect on ATP production in PC knockout human HCCLM3 cells assessed as reduction in intracellular ATP level at 10 nM by CellTiter-Lumni plus cell viability assay; type: functional, cell-based
HCCLM3 [31] = assay: Induction of glycolysis in PC knockout human HCCLM3 cells assessed as intracellular glucose consumption at 10 nM; type: functional, cell-based
HCCLM3 [32] = assay: Induction of glycolysis in PC knockout human HCCLM3 cells assessed as intracellular lactate concentration at 10 nM CheKine lactate assay; type: functional, cell-based
HCCLM3 [33] = assay: Antiinvasive activity against human HCCLM3 cells assessed as reduction in cell invasion at 0.05 to 1 nM by matrigel transwell assay; type: functional, cell-based; settings: dose 0.05-1 nM
HCCLM3 [34] = assay: Induction of apoptosis in human HCCLM3 cells assessed as nuclear condensation at 20 nM incubated for 24 hrs by DAPI staining based phase contrast microscopic analysis; type: functional, cell-based

- inhibition (HepG2 [17]): Active
- IC50 [18]: 13.1 µM
- IC50 [19]: 0.00518 µM
- Activity [23]: Active
Structure (SMILES): COc1ccc(CCc2cc(OC)c(OC)c(OC)c2)cc1O
- Activity (HepG2 [1]): Tde
- Activity (L02): Non-Toxic
- Activity (HepG2 [2]): Tde
- Activity (HepG2 [3]): Tde
- Activity (HCCLM3 [4]): Active
- inhibition (HCCLM3 [5]): Active
- Activity (HepG2 [6]): Active
- Activity (HepG2 [7]): Dose-Dependent Effect
- Activity (HepG2 [8]): Dose-Dependent Effect
- Activity (HepG2 [9]): inactive
- Activity [10]: Non-Toxic
- Activity [11]: Non-Toxic
- Activity (HepG2 [12]): Active
- Activity (HCCLM3 [13]): Active
- Activity (HCCLM3 [14]): Active
- Activity [15]: Non-Toxic
- Activity [16]: Non-Toxic
- Activity (HCCLM3 [20]): Active
- Activity (SK-HEP1 [21]): Active
- inhibition (SK-HEP1 [22]): inactive
- Activity (HCCLM3 [24]): Active
- Activity (HCCLM3 [25]): Active
- Activity (HCCLM3 [26]): Tde
- Activity (HCCLM3 [27]): inactive
- inhibition (HCCLM3 [28]): Active
- Activity (HCCLM3 [29]): Active
- Activity (HCCLM3 [30]): Active
- Activity (HCCLM3 [31]): Active
- Activity (HCCLM3 [32]): Active
- Activity (HCCLM3 [33]): Active
- Activity (HCCLM3 [34]): Active
